Here are results for seven molecules from US20080261986A1, “PHARMACEUTICAL FORMULATIONS FOR IONTOPHORETIC DELIVERY OF AN ANTI-FUNGAL DRUG” (priority 2007, published 2008).

Values after ≈ are worked out from the molar mass of the structure shown. Values joined by “and” are separate entries in the source; they are usually repeats but may differ in a detail not shown here. Equal entries are not always repeated. Structures can show the parent of a compound that is named as a salt. Where two headings read alike, the source gives them in different places.

Series [1] concerns C. albicans. Description: Permeation across full thickness nail (ChubTur cell), receiver fluid assayed by C. albicans growth absorbance. The settings on record: for Absorbance: replicates 1-3, full thickness human nail, C. albicans, 600 nm; for permeation across full thickness nail: all conditions tested (cathodal, anodal, passive). In kind it is cell-based.
Series [2] in a line: Approximate visual solubility in receiver fluids. In kind it is physicochemical. How it is done: The visual solubility of each receiver fluid shown in Table 3 below was initially tested for ketoconazole (BUFA B.V.) and ciclopirox (PCAS Finland Oy). Additional solubility testing was then conducted for terbinafine hydrochloride (QueMaCo Ltd.), amorolfine hydrochloride (Inter-Chemical Ltd.) and itraconazole EP (Shamrock, UK) and the results are shown in Table 3.
The solubility of terbinafine hydrochloride, fluconazole, itraconazole and amorolfine hydrochloride was determined in PBS and 5% Tween 80 and the results are summarized in Table 4.

Series [3] is classed as in vitro ADME, human. How it is done:
Prehydrated cadaver finger nails (approximately 0.5-0.7 mm thickness) or bovine hooves (approximately 0.25 mm thickness) were used for comparing different formulations as described in Examples 8-10. […] A nail adaptor was required to accommodate the curvature of the nail, but not for the hoof. The receptor compartments were filled with receiver fluid (3-5 ml water pH 3) and the drug formulations described above (0.5-2 mL) were placed in the donor compartment. […] Receptor levels of drug permeated were analyzed. Aliquots removed were replaced with an equal amount of buffer, and were assayed by HPLC to measure terbinafine HCl permeation through the nail or hoof. Control passive experiments were conducted in the same way except for the application of electric current. Nails or hooves were taken out of the FDC and drug extracted as described in Example 4. The drug loading levels in the nail or hoof were expressed as mg terbinafine HCl per g of nail or hoof. Data were expressed as means ±standard deviations. All experiments were performed in triplicate. […] The four formulations were evaluated for permeation of terbinafine HCl through the nail and loading in the nail as described in Example 8. Formulations containing benzoic acid improved permeation of terbinafine HCl through the nail over the base glycerin formulation without benzoic acid (FIG. 7A).

Where [4] appears, read: aqueous with cosolvent or surfactant or cyclodextrin, Approximate visual solubility.

As for `Cc1cc(C2CCCCC2)n(O)c(=O)c1` [Ciclopirox olamine, ciclopirox olamine], the Absorbance in series [1] (Anodal iontophoresis (1000 μA, 1 hr)) was 0.042 and 0.079; in series [1] (Cathodal iontophoresis, controls: no C. albicans 0.037-0.039, no compound 0.126-0.160), 0.048; in series [1] (Passive permeation) it was 0.157 and 0.129. Further, the “permeation across full thickness nail (detection in receiver fluid)” value in series [1] (both cathodal and anodal iontophoresis) is “detected in the receiver fluid”; in series [1] (passive delivery), “not with passive delivery”.
In the case of `CC(=O)N1CCN(c2ccc(OCC3COC(Cn4ccnc4)(c4ccc(Cl)cc4Cl)O3)cc2)CC1` (stereo not shown) [ketoconazole], the “solubility in receiver fluid (in words)” value in series [2] (PBS and 5% Tween 80) was “good solubility”. Further, the solubility was under 554 µg/mL in series [2] (aqueous buffer, 1% Propylene glycol in PBS, read-out: Approximate visual solubility); under 1030 µg/mL in series [2] (aqueous with cosolvent or surfactant or cyclodextrin, 20 mM B hydroxylpropyl cyclodextrin in PBS, read-out: Approximate visual solubility); 2120 to 2370 µg/mL (≈ 3990 to 4460 µM) in series [2] (aqueous with cosolvent or surfactant or cyclodextrin, 200 mM B hydroxylpropyl cyclodextrin in PBS, read-out: Approximate visual solubility); under 412 µg/mL in series [2] (aqueous with cosolvent or surfactant or cyclodextrin, 0.5% Tween-80 in PBS, read-out: Approximate visual solubility); under 458 µg/mL in series [2] (aqueous with cosolvent or surfactant or cyclodextrin, 1% Tween-80 in PBS, read-out: Approximate visual solubility); under 646 µg/mL in series [2] (aqueous with cosolvent or surfactant or cyclodextrin, 2% Tween-80 in PBS, read-out: Approximate visual solubility). The solubility in series [2] (aqueous with cosolvent or surfactant or cyclodextrin, 5% Ethanol in PBS, read-out: Approximate visual solubility) is under 910 µg/mL; in series [2] (aqueous with cosolvent or surfactant or cyclodextrin, 5% Propylene glycol in PBS, read-out: Approximate visual solubility), under 472 µg/mL; in series [2] (aqueous with cosolvent or surfactant or cyclodextrin, 5% Tween-80 in PBS, read-out: Approximate visual solubility), 1280 to 1530 µg/mL (≈ 2410 to 2880 µM); in series [2] (aqueous with cosolvent or surfactant or cyclodextrin, 10% Ethanol in PBS, read-out: Approximate visual solubility), under 438 µg/mL; in series [2] (aqueous with cosolvent or surfactant or cyclodextrin, 20% Ethanol in PBS, read-out: Approximate visual solubility), under 398 µg/mL.
Turning to `CCC(C)n1ncn(-c2ccc(N3CCN(c4ccc(OCC5COC(Cn6cncn6)(c6ccc(Cl)cc6Cl)O5)cc4)CC3)cc2)c1=O` (stereo not shown) [Itraconazole, itraconazole], in series [2] (setting [4]), the solubility was under 330 µg/mL.
In the case of `CCC(C)(C)c1ccc(CC(C)CN2C[C@@H](C)O[C@@H](C)C2)cc1` (stereo partly shown) [Amorolfine hydrochloride, amorolfine hydrochloride], the solubility in series [2] (setting [4]) lay in the range of 2050 to 2570 µg/mL. Further, the Absorbance in series [1] (Anodal iontophoresis (1000 μA, 1 hr), listed as Amorolifine, hydrochloride) was 0.54 and 0.44 and 0.40; in series [1] (Cathodal iontophoresis, controls: no C. albicans 0.037-0.039, no compound 0.126-0.160, listed as Amorolifine, hydrochloride), 0.50 and 0.54 and 0.49; in series [1] (Passive permeation, listed as Amorolifine, hydrochloride), 0.48 and 0.59 and 0.54. In addition, the “permeation across full thickness nail” value in series [1] is “did not show permeation of the nail under any conditions tested”.
For the molecule `Cc1cc(C2CCCCC2)n(O)c(=O)c1` [ciclopirox], the “solubility in receiver fluid (in words)” value in series [2] is given as “good solubility”. Also, the solubility in series [2] (aqueous buffer, Approximate visual solubility) is under 388 µg/mL. Further, the Absorbance in series [1] (Anodal iontophoresis (1000 μA, 1 hr), listed as Ciclopirox) is 0.045 and 0.044 and 0.068; in series [1] (Cathodal iontophoresis, controls: no C. albicans 0.037-0.039, no compound 0.126-0.160, listed as Ciclopirox) it was 0.075 and 0.085 and 0.079; in series [1] (Passive permeation, listed as Ciclopirox), 0.075 and 0.046. In addition, the “permeation across full thickness nail” value in series [1] is given as “appeared to penetrate the nail regardless of whether current was applied”.
In the case of `OC(Cn1cncn1)(Cn1cncn1)c1ccc(F)cc1F` [Fluconazole, fluconazole], the solubility in series [2] (aqueous with cosolvent or surfactant or cyclodextrin, PBS and 5% Tween 80 (Table 4), read-out: Approximate visual solubility) fell in the range of 1910 to 2170 µg/mL (≈ 6240 to 7090 µM).
Turning to PEG 400, the “permeation of terbinafine HCl through the nail (in words)” value in series [3] is reported as “further improved the permeation of terbinafine HCl through the nail”.

The solubility is the concentration that dissolves in the medium under given conditions.
